From patent US9908872B2, “Methods to treat lymphoplasmacytic lymphoma” (Dana-Farber Cancer Institute, Inc., priority 2013, dated 2018)
Values joined by “and” are separate entries in the source; they are usually repeats but may differ in a detail not shown here. Equal entries are not always repeated.

Legend:
[1] = test system: ABL, ARG; experiment: KiNativ profiling, A375 cells; type: binding, Homo sapiens; settings: 1 μM, labeling site Activation Loop
[2] = test system: AMPKa1, AMPKa2; experiment: KiNativ profiling, A375 cells; type: binding, Homo sapiens; settings: 1 μM, labeling site Lys1
[3] = test system: CaMK2a, CaMK2b, CaMK2d, CaMK2g; experiment: KiNativ profiling, A375 cells; type: binding, Homo sapiens; settings: 1 μM, labeling site Lys2
[4] = test system: CDK11, CDK8; experiment: KiNativ profiling, A375 cells; type: binding, Homo sapiens; settings: 1 μM, labeling site Lys2
[5] = test system: FYN, SRC, YES; experiment: KiNativ profiling, A375 cells; type: binding, Homo sapiens; settings: 1 μM, labeling site Activation Loop
[6] = test system: IKKe, TBK1; experiment: KiNativ profiling, A375 cells; type: binding, Homo sapiens; settings: 1 μM, labeling site Lys2
[7] = test system: JNK1, JNK2, JNK3; experiment: KiNativ profiling, A375 cells; type: binding, Homo sapiens; settings: 1 μM, labeling site Lys2
[8] = test system: LYN; type: binding, Homo sapiens
[9] = test system: MAP2K1, MAP2K2; experiment: KiNativ profiling, A375 cells; type: binding, Homo sapiens; settings: 1 μM, labeling site Lys2
[10] = test system: MAP3K2, MAP3K3; experiment: KiNativ profiling, A375 cells; type: binding, Homo sapiens; settings: 1 μM, labeling site Lys2
[11] = test system: MARK1, MARK2; experiment: KiNativ profiling, A375 cells; type: binding, Homo sapiens; settings: 1 μM, labeling site Lys1
[12] = test system: MARK2, MARK3; experiment: KiNativ profiling, A375 cells; type: binding, Homo sapiens; settings: 1 μM, labeling site Lys2
[13] = test system: MST4, YSK1; experiment: KiNativ profiling, A375 cells; type: binding, Homo sapiens; settings: 1 μM, labeling site Lys2
[14] = test system: NEK6, NEK7; experiment: KiNativ profiling, A375 cells; type: binding, Homo sapiens; settings: 1 μM, labeling site Lys2
[15] = test system: p38d, p38g; experiment: KiNativ profiling, A375 cells; type: binding, Homo sapiens; settings: 1 μM, labeling site Lys2
[16] = test system: PITSLRE; experiment: KiNativ profiling, A375 cells; type: binding, Homo sapiens; settings: 1 μM, labeling site Lys2
[17] = test system: PKD1, PKD2; experiment: KiNativ profiling, A375 cells; type: binding, Homo sapiens; settings: 1 μM, labeling site Lys2
[18] = test system: ROCK1, ROCK2; experiment: KiNativ profiling, A375 cells; type: binding, Homo sapiens; settings: 1 μM, labeling site Lys2
[19] = test system: TAO1, TAO3; experiment: KiNativ profiling, A375 cells; type: binding, Homo sapiens; settings: 1 μM, labeling site Lys2
[20] = test system: ZAK; type: binding, Homo sapiens
[21] = test system: ZC1/HGK, ZC2/TNIK, ZC3/MINK; experiment: KiNativ profiling, A375 cells; type: binding, Homo sapiens; settings: 1 μM, labeling site Lys2
[22] = test system: OCI-Ly19; experiment: CellTiter-Glo cell viability assay; type: cell-based; settings: 72 hours, cell survival
Protocol: (§1) CellTiter-Glo® Luminescent cell viability assay (Promega) was used to assess cell survival following treatment with the compounds described. Cells were seeded into 384 well plates with the EL406 Combination Washer Dispenser (BioTek Instruments, Inc.), and the compounds were injected into the cells culture media with the JANUS Automated Workstation (PerkinElmer Inc.). Cells were treated with a series diluted inhibitors (20˜0.04 μM) for 72 hours at 37° C. Luminescent measurement is performed using the 2104 Envision® Multilabel Reader (PerkinElmer Inc.).

[23] = test system: Ramos; experiment: CellTiter-Glo cell viability assay; type: cell-based; settings: 72 hours, cell survival
Protocol: as §1

[24] = test system: BCWM.1; experiment: CellTiter-Glo cell viability assay; type: cell-based; settings: 72 hours, cell survival
Protocol: as §1

[25] = test system: MWCL-1; experiment: CellTiter-Glo cell viability assay; type: cell-based; settings: 72 hours, cell survival
Protocol: as §1

[26] = test system: OCI-Ly3; experiment: CellTiter-Glo cell viability assay; type: cell-based; settings: Homo sapiens, 72 hours, cell survival
Protocol: as §1

[27] = test system: RPCIWM-1; experiment: CellTiter-Glo cell viability assay; type: cell-based; settings: 72 hours, cell survival
Protocol: as §1

Cc1ccc(C(=O)Nc2cccc(C(C)(C)C#N)c2)cc1NC(=O)c1cncc(-c2cccs2)c1 [I-6, N-(5-((3-(2-cyanopropan-2-yl)phenyl)carbamoyl)-2-methylphenyl)-5-(thiophen-2-yl)nicotinamide]
KiNativ inhibition of ABL, ARG [1]: >90% | KiNativ inhibition of AMPKa1, AMPKa2 [2]: 15.3% | KiNativ inhibition of CaMK2a, CaMK2b, CaMK2d, CaMK2g [3]: 0.7% | KiNativ inhibition of CDK11, CDK8 [4]: 20.7% | KiNativ inhibition of FYN, SRC, YES [5]: 55.7% | KiNativ inhibition of IKKe, TBK1 [6]: 24.8% | KiNativ inhibition of JNK1, JNK2, JNK3 [7]: 11.7% | KiNativ inhibition of LYN [8]: 87.6% | KiNativ inhibition of MAP2K1, MAP2K2 [9]: 4.1% | KiNativ inhibition of MAP3K2, MAP3K3 [10]: -15.3% | KiNativ inhibition of MARK1, MARK2 [11]: -4.9% | KiNativ inhibition of MARK2, MARK3 [12]: 17.2% | KiNativ inhibition of MST4, YSK1 [13]: 22% | KiNativ inhibition of NEK6, NEK7 [14]: -3.7% | KiNativ inhibition of p38d, p38g [15]: 17.8% | KiNativ inhibition of PITSLRE [16]: 1.9% | KiNativ inhibition of PKD1, PKD2 [17]: -2.5% | KiNativ inhibition of ROCK1, ROCK2 [18]: 12.7% | KiNativ inhibition of TAO1, TAO3 [19]: 11.9% | KiNativ inhibition of ZAK [20]: >95% | KiNativ inhibition of ZC1/HGK, ZC2/TNIK, ZC3/MINK [21]: 27%

CCN1CCN(Cc2ccc(NC(=O)c3ccc(C)c(NC(=O)c4cncc(-c5cnoc5)c4)c3)cc2C(F)(F)F)CC1 [I-8]
EC50 [22]: 56 nM | EC50 [23]: 329 nM

CCN1CCN(Cc2ccc(NC(=O)c3ccc(Cl)c(NC(=O)c4cncc(-c5cccs5)c4)c3)cc2C(F)(F)F)CC1 [I-2, N-(2-chloro-5-((4-((4-ethylpiperazin-1-yl)methyl)-3-(trifluoromethyl)phenyl)carbamoyl)phenyl)-5-(thiophen-2-yl)nicotinamide]
EC50 ([24]; BCWM1): 12 nM | EC50 [25]: 16 nM | EC50 [26]: 161 nM | EC50 [27]: 110 nM | EC50 ([23]; Homo sapiens, Ramos): 60 nM

CCN1CCN(Cc2ccc(NC(=O)c3ccc(C)c(NC(=O)c4cncc(-c5cnn(C)c5)c4)c3)cc2C(F)(F)F)CC1 [I-9]
EC50 [24]: 542 nM and 305 nM | EC50 [25]: 294 nM and 281 nM | EC50 [22]: 2650 nM | EC50 [23]: 7470 nM
